Data reported in patent US20060189546A1, “Compounds for treating autoimmune and demyelinating diseases” (priority 2005, published 2006).

What was measured:
[1] = system: Collagen Antibody Induced Arthritis; conditions: Lange et al., Annals of Rheumatoid Disease 64:599-605, 2005; cited from earlier work
[2] = system: Experimental Autoimmune Encephalomyelitis (EAE); test: Acute EAE, daily dosing for 15 days (Example 5); type: in vivo, guinea pigs; conditions: Symadex 6 mg/kg, mitoxantrone 0.35 mg/kg
Experimental: Accordingly, three randomized cohorts of guinea pigs with EAE induced by the method of Example 2, were treated, respectively, with 6 mg/kg of Symadex™ (full salt hydrate) and 0.35 mg/kg of mitoxantrone. Animals were treated daily, by intraperitoneal injection, for 15 days, starting on day 7 post immunization. Controls were treated with vehicle. We reasoned that 15 consecutive, 6 mg/kg doses of Symadex™ would represent a level of drug exposure that would be commensurate with the “20 mg/kg every 72 hours” regimen in Example 4 and consistent with a mid level exposure between the 20 mg/kg and the 40 mg/kg schedule given weekly, in Example 2. The mitoxantrone dose was selected to reflect a typical high dose given to rats or mice by daily dosing in the prior art, but allometrically scaled to the guinea pig.

[3] = system: B-lymphocyte cells; test: Cell Proliferation, B-Cell + LPS ([3H]thymidine incorporation); type: cell-based, balb/c mice; conditions: Mus musculus, B-Cell + LPS
Experimental: B-lymphocyte cells isolated from the spleen of balb/c mice weighing 17±1 g were used. Test compound and/or vehicle were incubated with the cells (1.5×10^6/ml) in the presence of 10 μg/ml lipopolysaccharide (LPS) in AIM-V medium pH 7.4 at 37° C. for 24 hours. [^3H]Thymidine (120 nM) was then added for an additional overnight incubation period. Thymidine incorporation was assessed by liquid scintillation counting.
(§1) Test compound-induced suppression of cell proliferation by 50 percent or more (≧50%) relative to vehicle control response indicates significant inhibitory activity.

[4] = system: IL-10; test: Mediator release, IL-10 (Con A-stimulated PBML, sandwich ELISA); type: cell-based; conditions: Homo sapiens, IL-10 release
Experimental: (§2) In this experiment, test compound and/or vehicle were preincubated with human peripheral blood mononuclear leukocyte (PBML, 1×10^6/ml) in RPMI buffer pH 7.4 for 2 hours. Concanavalin A (Con A, 20 μg/ml) was then added to stimulate the cells overnight in 5% CO2 at 37° C. IL-4 and IL-10 cytokine levels in the conditioned medium were then quantified using a sandwich ELISA kit. Compounds were screened at 10, 1, 0.1, 0.01 and 0.001 μM.

[5] = system: T-lymphocyte cells; test: Cell Proliferation, T-Cell + Con A ([3H]thymidine incorporation); type: cell-based, balb/c mice; conditions: Mus musculus, T-Cell + Con A
Experimental: T-lymphocyte cells isolated from thymus of balb/c mice weighing 17±1 g were used. Test compound and/or vehicle is incubated with the cells (4×10^6/ml) in the presence of 3 μg/mL Concanavalin A (Con A) in AIM-V medium pH 7.4 at 37° C. for 24 hours. [^3H]Thymidine (120 nM) was then added for an additional overnight incubation period. Thymidine incorporation was assessed by liquid scintillation counting.
as §1

[6] = system: IL-4; test: Mediator release, IL-4 (Con A-stimulated PBML, sandwich ELISA); type: cell-based; conditions: Homo sapiens
Experimental: as §2

[7] = 1 nM, read-out: % Growth Inhibition
[8] = 10 nM, read-out: % Growth Inhibition
[9] = 0.1 μM, read-out: % Growth Inhibition
[10] = 1 μM, read-out: % Growth Inhibition
[11] = 10 μM, read-out: % Growth Inhibition

CN(Cc1cnc2nc(N)nc(N)c2n1)c1ccc(C(=O)N[C@@H](CCC(=O)O)C(=O)O)cc1 [Methotrexate]
benefit in antibody induced arthritis models [1]: diminishing benefit

O=C1c2c(O)ccc(O)c2C(=O)c2c(NCCNCCO)ccc(NCCNCCO)c21 [Mitoxantrone, reference compound]
clinical score (neurological impairment) ([2]; daily i.p. for 15 days from day 7): the initial rise in neurological impairment is arrested
weight gain ([2]; daily i.p. for 15 days): impairs weight gain
reduction of meningeal inflammation (M) pathology score ([2]; necropsy after 15 daily doses): statistically significant reduction in meningeal inflammation
reduction of perivascular cuffing (P), myelitis (E) and demyelination (D) pathology scores ([2]; necropsy after 15 daily doses): statistically significant differences (p value<0.05) from control
IC50 [3]: 7.31 nM
inhibition at 0.001 µM [3, 7]: 18%
inhibition at 0.01 µM [3, 8]: 54%
inhibition at 0.1 µM [3, 9]: 93%
inhibition at 1 µM [3, 10]: 102%
inhibition at 10 µM [3, 11]: 102%
IC50 [4]: 759 nM
inhibition at 0.001 µM [4, 7]: 2%
inhibition at 0.01 µM [4, 8]: 1%
inhibition at 0.1 µM [4, 9]: 5%
inhibition at 1 µM [4, 10]: 60%
inhibition at 10 µM [4, 11]: 102%
IC50 [5]: 32 nM
inhibition at 0.001 µM [5, 7]: -1%
inhibition at 0.01 µM [5, 8]: 19%
inhibition at 0.1 µM [5, 9]: 80%
inhibition at 1 µM [5, 10]: 103%
inhibition at 10 µM [5, 11]: 103%
% inhibition of IL-4 release at 0.001 µM [6, 7]: 11%
% inhibition of IL-4 release at 0.01 µM [6, 8]: 13%
% inhibition of IL-4 release at 0.1 µM [6, 9]: 18%
% inhibition of IL-4 release at 1 µM [6, 10]: -4%
% inhibition of IL-4 release at 10 µM [6, 11]: 108%
IC50 ([6]; IL-4 release): 2960 nM
